In US20060069132A1, “Azolecarboxamide herbicides” (priority 2004, published 2006):

Assays:
common ragweed = assay: Test C pre-/postemergence herbicide test; type: in vivo, Ambrosia elatior; set-up: key to Plant response rating, Ragweed: 0 = no effect, 100 = complete control; details: for Ragweed plant response rating: 500 g ai/ha
Procedure, shortened: (§1)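 Emerged plants at the 1- to 4-leaf stage (2–18 cm), or freshly planted seeds, received test chemicals in a non-phytotoxic solvent mixture with surfactant. Response was visually scored against controls after 12 to 14 days in the greenhouse, on a 0 (no effect) to 100 (complete control) scale.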

lambsquarters = assay: Test C pre-/postemergence herbicide test; type: in vivo, Chenopodium album; details: for Lambsquarters plant response rating: 500 g ai/ha
Procedure, shortened: as §1

barnyardgrass = assay: Test C flooded paddy test; type: in vivo, Echinochloa crus-galli; details: for Plant response rating, Barnyardgrass: visual rating after 12 to 14 days
Procedure, shortened: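 Weeds and wheat were sprayed after emergence, at a height of 2 to 18 cm (1–4 leaves), and paddy barnyardgrass was flooded and treated at two leaves. Assessment took place 12–14 days later in the greenhouse on a 0-to-100 visual control scale. A dash means no result was obtained.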

corn = assay: Test C pre-/postemergence herbicide test; type: in vivo, Zea mays
Procedure, shortened: as §1

eastern black nightshade = assay: Test C pre-/postemergence herbicide test; type: in vivo, Solanum ptycanthum
Procedure, shortened: as §1

yellow nutsedge = assay: Test C pre-/postemergence herbicide test; type: in vivo, Cyperus esculentus; details: for Nutsedge, Yellow plant response rating: 500 g ai/ha
Procedure, shortened: as §1

Surinam grass = assay: Test C pre-/postemergence herbicide test; type: in vivo, Urochloa decumbens; details: for Surinam Grass plant response rating: 500 g ai/ha
Procedure, shortened: as §1

giant foxtail = assay: Test C pre-/postemergence herbicide test; type: in vivo, Setaria faberi; details: for Foxtail, Giant plant response rating: 500 g ai/ha
Procedure, shortened: as §1

soybean = assay: Test C pre-/postemergence herbicide test; type: in vivo, Glycine max; details: for Soybean plant response rating: 500 g ai/ha
Procedure, shortened: as §1

johnsongrass = assay: Test C pre-/postemergence herbicide test; type: in vivo, Sorghum halepense; details: for Johnsongrass plant response rating: 500 g ai/ha
Procedure, shortened: as §1

morningglory = assay: Test C pre-/postemergence herbicide test; type: in vivo, Ipomoea coccinea; set-up: key to Plant response rating, Morningglory: 0 = no effect, 100 = complete control; details: for Morningglory plant response rating: 500 g ai/ha
Procedure, shortened: as §1

[1] = system: smallflower umbrella sedge; assay: Test C flooded paddy test; type: in vivo, Cyperus difformis; details: for Plant response rating, Sedge, Umbrella: visual rating after 12 to 14 days
ducksalad = assay: Test C flooded paddy test; type: in vivo, Heteranthera limosa; details: for Plant response rating, Ducksalad: visual rating after 12 to 14 days
[2] = 250 g ai/ha, scale 0 to 100 (0 no effect, 100 complete control), visual, 12 to 14 days, preemergence
[3] = Postemergence, 250 g ai/ha, scale 0 to 100, 0 no effect, 100 complete control
[4] = Preemergence, scale 0 to 100, 0 no effect, 100 complete control
[5] = postemergence, 125 g ai/ha, scale 0 to 100
[6] = postemergence, 62 g ai/ha, scale 0 to 100
[7] = 125 g ai/ha, scale 0-100, preemergence
[8] = 62 g ai/ha, scale 0 to 100 (0 no effect, 100 complete control)
[9] = 125 g ai/ha, scale of 0 to 100, 0 is no effect, 100 is complete control
[10] = 250 g ai/ha, scale 0 to 100 (0 no effect, 100 complete control)
[11] = 500 g ai/ha, scale 0 to 100 (0 no effect, 100 complete control)
[12] = Postemergence, 125 g ai/ha, scale 0 to 100, 0 no effect, 100 complete control

CCNC(=O)c1cccc(NC(=O)c2cc(C(C)(C)C)nn2CC(F)(F)F)c1 [Compound 31]
Plant response rating (0 = no effect, 100 = complete control), Ragweed (common ragweed; 62 g ai/ha, preemergence): 0 | Plant response rating, Ragweed (common ragweed; [2]): 60 | Ragweed plant response rating (common ragweed; Postemergence, scale 0 to 100): 70 | Plant response rating, Ragweed (common ragweed; [3]): 40 | Ragweed plant response rating (common ragweed; [4]): 80 | Plant response rating, Ragweed (common ragweed; [5]): 40 | Plant response rating, Ragweed (common ragweed; [6]): 30 | Plant response rating (0 = no effect, 100 = complete control), Lambsquarters (lambsquarters; 62 g ai/ha, preemergence): 90 | Plant response rating, Lambsquarters (lambsquarters; [7]): 100 | Plant response rating, Lambsquarters (lambsquarters; [2]): 100 | Lambsquarters plant response rating (lambsquarters; Postemergence, scale 0 to 100): 90 | Plant response rating, Lambsquarters (lambsquarters; [3]): 90 | Lambsquarters plant response rating (lambsquarters; [4]): 100 | Plant response rating, Lambsquarters (lambsquarters; [5]): 80 | Plant response rating, Lambsquarters (lambsquarters; [6]): 80 | Barnyardgrass plant response rating (barnyardgrass; [8]): 0 | Barnyardgrass plant response rating (barnyardgrass; [9]): 30 | Plant response rating, Barnyardgrass (barnyardgrass; [10]): 70 | Plant response rating, Barnyardgrass (barnyardgrass; [11]): 75 | Plant response rating (0 = no effect, 100 = complete control), Corn (corn; 62 g ai/ha, preemergence): 0 | Plant response rating, Corn (corn; [7]): 20 | Corn plant response rating (corn; Postemergence, 500 g ai/ha, scale 0 to 100): 50 | Plant response rating, Corn (corn; [12]): 40 | Plant response rating, Corn (corn; [3]): 40 | Plant response rating, Corn (corn; [6]): 40 | Plant response rating (0 = no effect, 100 = complete control), Nightshade (eastern black nightshade; 62 g ai/ha, preemergence): 90 | Plant response rating, Nightshade (eastern black nightshade; [2]): 100 | Nightshade plant response rating (eastern black nightshade; Preemergence, 500 g ai/ha, scale 0 to 100, 0 no effect, 100 complete control): 100 | Plant response rating (0 = no effect, 100 = complete control), Nutsedge, Yellow (yellow nutsedge; 62 g ai/ha, preemergence): 0 | Plant response rating, Nutsedge, Yellow (yellow nutsedge; [2]): 0 | Nutsedge, Yellow plant response rating (yellow nutsedge; Postemergence, scale 0 to 100): 30 | Plant response rating, Nutsedge, Yellow (yellow nutsedge; [3]): 30 | Nutsedge, Yellow plant response rating (yellow nutsedge; [4]): 0 | Plant response rating, Nutsedge, Yellow (yellow nutsedge; [5]): 0 | Plant response rating, Nutsedge, Yellow (yellow nutsedge; [6]): 0 | Plant response rating (0 = no effect, 100 = complete control), Surinam Grass (Surinam grass; 62 g ai/ha, preemergence): 10 | Plant response rating, Surinam Grass (Surinam grass; [2]): 30 | Surinam Grass plant response rating (Surinam grass; Postemergence, scale 0 to 100): 50 | Plant response rating, Surinam Grass (Surinam grass; [3]): 50 | Surinam Grass plant response rating (Surinam grass; [4]): 60 | Plant response rating, Surinam Grass (Surinam grass; [5]): 40 | Plant response rating, Surinam Grass (Surinam grass; [6]): 30 | Plant response rating (0 = no effect, 100 = complete control), Foxtail, Giant (giant foxtail; 62 g ai/ha, preemergence): 20 | Plant response rating, Foxtail, Giant (giant foxtail; [7]): 30 | Plant response rating, Foxtail, Giant (giant foxtail; [2]): 70 | Foxtail, Giant plant response rating (giant foxtail; Postemergence, scale 0 to 100): 40 | Plant response rating, Foxtail, Giant (giant foxtail; [12]): 30 | Plant response rating, Foxtail, Giant (giant foxtail; [3]): 30 | Foxtail, Giant plant response rating (giant foxtail; [4]): 100 | Plant response rating, Foxtail, Giant (giant foxtail; [6]): 20 | Plant response rating (0 = no effect, 100 = complete control), Soybean (soybean; 62 g ai/ha, preemergence): 0 | Plant response rating, Soybean (soybean; [2]): 10 | Soybean plant response rating (soybean; Postemergence, scale 0 to 100): 80 | Plant response rating, Soybean (soybean; [3]): 70 | Soybean plant response rating (soybean; [4]): 20 | Plant response rating, Soybean (soybean; [5]): 50 | Plant response rating, Soybean (soybean; [6]): 30 | Plant response rating (0 = no effect, 100 = complete control), Johnsongrass (johnsongrass; 62 g ai/ha, preemergence): 0 | Plant response rating, Johnsongrass (johnsongrass; [7]): 30 | Plant response rating, Johnsongrass (johnsongrass; [2]): 70 | Johnsongrass plant response rating (johnsongrass; Postemergence, scale 0 to 100): 30 | Plant response rating, Johnsongrass (johnsongrass; [12]): 20 | Plant response rating, Johnsongrass (johnsongrass; [3]): 30 | Johnsongrass plant response rating (johnsongrass; [4]): 90 | Plant response rating, Johnsongrass (johnsongrass; [6]): 20 | Morningglory plant response rating (morningglory; Postemergence, scale 0 to 100): 70 | Plant response rating, Morningglory (morningglory; [3]): 60 | Morningglory plant response rating (morningglory; [4]): 40 | Plant response rating, Morningglory (morningglory; [5]): 50 | Plant response rating, Morningglory (morningglory; [6]): 50 | Sedge, Umbrella plant response rating [1, 8]: 0 | Sedge, Umbrella plant response rating [1, 9]: 35 | Plant response rating, Sedge, Umbrella [1, 10]: 40 | Plant response rating, Sedge, Umbrella [1, 11]: 55 | Ducksalad plant response rating (ducksalad; [8]): 10 | Ducksalad plant response rating (ducksalad; [9]): 20 | Plant response rating, Ducksalad (ducksalad; [10]): 40 | Plant response rating, Ducksalad (ducksalad; [11]): 60
